Some results are limits rather than exact numbers.

human BACE1, sequence (P56817 46-501): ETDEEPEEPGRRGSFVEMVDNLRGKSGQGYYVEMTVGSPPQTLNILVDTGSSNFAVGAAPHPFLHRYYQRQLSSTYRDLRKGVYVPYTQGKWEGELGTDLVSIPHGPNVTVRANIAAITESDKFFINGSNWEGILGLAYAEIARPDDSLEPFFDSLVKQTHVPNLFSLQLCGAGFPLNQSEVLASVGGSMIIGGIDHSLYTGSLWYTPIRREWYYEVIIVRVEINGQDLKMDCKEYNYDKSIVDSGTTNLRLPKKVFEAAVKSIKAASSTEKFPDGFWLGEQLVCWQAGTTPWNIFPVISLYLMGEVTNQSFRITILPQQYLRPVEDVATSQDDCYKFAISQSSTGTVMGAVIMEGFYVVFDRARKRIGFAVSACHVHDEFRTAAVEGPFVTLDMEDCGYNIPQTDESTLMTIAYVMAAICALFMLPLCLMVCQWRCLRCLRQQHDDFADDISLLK

This assay addresses human BACE1 (Homo sapiens, UniProt P56817). In words: Fluorescent kinetic assay, evaluation of BACE1 binding affinity of test compounds. Format: biochemical. Conditions: 10 nM human BACE1, 25 μM substrate WABC-6, pH 4.5, room temperature; read-out: BACE1 IC50. In outline: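 Kinetic fluorescence assay: enzyme added last to inhibitor and substrate mix, reading started immediately; substrate at 100 μM working dilution (25 μL in 100 μL total). Buffer 66.7 mM Na-acetate pH 4.5 with 0.0667% CHAPS for inhibitor and enzyme dilutions; enzyme stock quantified at 280 nm.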
For `CN1C(=O)C(c2ccc(OC(F)F)c(Cl)c2)(c2ccc(F)c(OCC(F)F)c2)N=C1N` (centres unmarked) [Example 100, 2-Amino-5-[3-chloro-4-(difluoromethoxy)phenyl]-5-[3-(2,2-difluoroethoxy)-4-fluorophenyl]-3-methyl-3,5-dihydro-4H-imidazol-4-one], the IC50 (usually the concentration at which inhibition is half-maximal) is less than 100 nM.
The figure for `CCOc1cc(C2(c3ccc(OC(F)F)c(C)c3)N=C(N)N(C)C2=O)ccc1F` (centres unmarked) [Example 101, 2-Amino-5-[4-(difluoromethoxy)-3-methylphenyl]-5-(3-ethoxy-4-fluorophenyl)-3-methyl-3,5-dihydro-4H-imidazol-4-one] is less than 100 nM; for `Cc1cc(C2(c3ccc(F)c(OCC4CC4)c3)N=C(N)N(C)C2=O)ccc1OC(F)F` (centres unmarked) [Example 105, 2-Amino-5-[3-(cyclopropylmethoxy)-4-fluorophenyl]-5-[4-(difluoromethoxy)-3-methylphenyl]-3-methyl-3,5-dihydro-4H-imidazol-4-one] it is less than 100 nM; for `Cc1cc([C@]2(c3ccc(F)c(OCC4CC4)c3)N=C(N)N(C)C2=O)ccc1OC(F)F` [Example 106, (5R)-2-Amino-5-[3-(cyclopropylmethoxy)-4-fluorophenyl]-5-[4-(difluoromethoxy)-3-methylphenyl]-3-methyl-3,5-dihydro-4H-imidazol-4-one] it is less than 100 nM.
To `Cc1cc([C@@]2(c3ccc(F)c(OCC4CC4)c3)N=C(N)N(C)C2=O)ccc1OC(F)F` [Example 107, (5S)-2-Amino-5-[3-(cyclopropylmethoxy)-4-fluorophenyl]-5-[4-(difluoromethoxy)-3-methylphenyl]-3-methyl-3,5-dihydro-4H-imidazol-4-one] belongs more than 1000 nM; to `Cc1cc(C2(c3ccc(F)c(OCCCF)c3)N=C(N)N(C)C2=O)ccc1OC(F)F` (centres unmarked) [Example 108, 2-Amino-5-[4-(difluoromethoxy)-3-methylphenyl]-5-[4-fluoro-3-(3-fluoropropoxy)phenyl]-3-methyl-3,5-dihydro-4H-imidazol-4-one], less than 100 nM.
Take `Cc1cc(C2(c3ccc(F)c(OCCF)c3)N=C(N)N(C)C2=O)ccc1OC(F)F` (centres unmarked) [Example 109, 2-Amino-5-[4-(difluoromethoxy)-3-methylphenyl]-5-[4-fluoro-3-(2-fluoroethoxy)phenyl]-3-methyl-3,5-dihydro-4H-imidazol-4-one]: the concentration for half-maximal inhibition (IC50) was less than 100 nM.
The figure for `Cc1cc([C@@]2(c3ccc(F)c(OCCCF)c3)N=C(N)N(C)C2=O)ccc1OC(F)F` [Example 110, (5S)-2-Amino-5-[4-(difluoromethoxy)-3-methylphenyl]-5-[4-fluoro-3-(3-fluoropropoxy)phenyl]-3-methyl-3,5-dihydro-4H-imidazol-4-one] is 110 to 1000 nM; for `Cc1cc([C@]2(c3ccc(F)c(OCCCF)c3)N=C(N)N(C)C2=O)ccc1OC(F)F` [Example 111, (5R)-2-Amino-5-[4-(difluoromethoxy)-3-methylphenyl]-5-[4-fluoro-3-(3-fluoropropoxy)phenyl]-3-methyl-3,5-dihydro-4H-imidazol-4-one] it is less than 100 nM.
`Cc1cc([C@@]2(c3ccc(F)c(OCCF)c3)N=C(N)N(C)C2=O)ccc1OC(F)F` [Example 112, (5S)-2-Amino-5-[4-(difluoromethoxy)-3-methylphenyl]-5-[4-fluoro-3-(2-fluoroethoxy)phenyl]-3-methyl-3,5-dihydro-4H-imidazol-4-one]: the IC50 was more than 1000 nM.
To `Cc1cc([C@]2(c3ccc(F)c(OCCF)c3)N=C(N)N(C)C2=O)ccc1OC(F)F` [Example 113, (5R)-2-Amino-5-[4-(difluoromethoxy)-3-methylphenyl]-5-[4-fluoro-3-(2-fluoroethoxy)phenyl]-3-methyl-3,5-dihydro-4H-imidazol-4-one] belongs less than 100 nM.
The figure for `CCCOc1cc(C2(c3ccc(OC(F)F)c(C)c3)N=C(N)N(C)C2=O)ccc1F` (centres unmarked) [Example 114, 2-Amino-5-[4-(difluoromethoxy)-3-methylphenyl]-5-(4-fluoro-3-propoxyphenyl)-3-methyl-3,5-dihydro-4H-imidazol-4-one] is less than 100 nM; for `CCCOc1cc([C@]2(c3ccc(OC(F)F)c(C)c3)N=C(N)N(C)C2=O)ccc1F` [Example 115, (5S)-2-Amino-5-[4-(difluoromethoxy)-3-methylphenyl]-5-(4-fluoro-3-propoxyphenyl)-3-methyl-3,5-dihydro-4H-imidazol-4-one] it is 110 to 1000 nM.
Take `CCc1cc(C2(c3ccc(F)c(OCC(F)F)c3)N=C(N)N(C)C2=O)ccc1OC(F)F` (centres unmarked) [Example 117, 2-Amino-5-[3-(2,2-difluoroethoxy)-4-fluorophenyl]-5-[4-(difluoromethoxy)-3-ethylphenyl]-3-methyl-3,5-dihydro-4H-imidazol-4-one]: the half-inhibitory concentration (IC50) was less than 100 nM.
To `CCc1cc([C@@]2(c3ccc(F)c(OCC(F)F)c3)N=C(N)N(C)C2=O)ccc1OC(F)F` [Example 118, (5S)-2-Amino-5-[3-(2,2-difluoroethoxy)-4-fluorophenyl]-5-[4-(difluoromethoxy)-3-ethylphenyl]-3-methyl-3,5-dihydro-4H-imidazol-4-one] belongs more than 1000 nM.
The figure for `CCc1cc([C@]2(c3ccc(F)c(OCC(F)F)c3)N=C(N)N(C)C2=O)ccc1OC(F)F` [Example 119, (5R)-2-Amino-5-[3-(2,2-difluoroethoxy)-4-fluorophenyl]-5-[4-(difluoromethoxy)-3-ethylphenyl]-3-methyl-3,5-dihydro-4H-imidazol-4-one] is less than 100 nM.
To `CCc1cc(C2(c3ccc(F)c(OCCCF)c3)N=C(N)N(C)C2=O)ccc1OC(F)F` (centres unmarked) [Example 120, 2-Amino-5-[4-(difluoromethoxy)-3-ethylphenyl]-5-[4-fluoro-3-(3-fluoropropoxy)phenyl]-3-methyl-3,5-dihydro-4H-imidazol-4-one] belongs less than 100 nM; to `CCc1cc([C@@]2(c3ccc(F)c(OCCCF)c3)N=C(N)N(C)C2=O)ccc1OC(F)F` [Example 121, (5S)-2-Amino-5-[4-(difluoromethoxy)-3-ethylphenyl]-5-[4-fluoro-3-(3-fluoropropoxy)phenyl]-3-methyl-3,5-dihydro-4H-imidazol-4-one], more than 1000 nM.
As for `CN1C(=O)C(c2ccc(F)c(OCC(F)F)c2)(c2ccc(OC(F)F)c(C3CC3)c2)N=C1N` (centres unmarked) [Example 123, 2-Amino-5-[3-cyclopropyl-4-(difluoromethoxy)phenyl]-5-[3-(2,2-difluoroethoxy)-4-fluorophenyl]-3-methyl-3,5-dihydro-4H-imidazol-4-one], the half-maximal inhibitory concentration (IC50) is less than 100 nM.
For `CN1C(=O)[C@@](c2ccc(F)c(OCC(F)F)c2)(c2ccc(OC(F)F)c(C3CC3)c2)N=C1N` [Example 124, (5S)-2-Amino-5-[3-cyclopropyl-4-(difluoromethoxy)phenyl]-5-[3-(2,2-difluoroethoxy)-4-fluorophenyl]-3-methyl-3,5-dihydro-4H-imidazol-4-one], the 50% inhibitory concentration (IC50) was more than 1000 nM.
To `CN1C(=O)[C@](c2ccc(F)c(OCC(F)F)c2)(c2ccc(OC(F)F)c(C3CC3)c2)N=C1N` [Example 125, (5R)-2-Amino-5-[3-cyclopropyl-4-(difluoromethoxy)phenyl]-5-[3-(2,2-difluoroethoxy)-4-fluorophenyl]-3-methyl-3,5-dihydro-4H-imidazol-4-one] belongs less than 100 nM.
To `Cc1cc(C2(c3cccc(OCCC(F)F)c3)N=C(N)N(C)C2=O)ccc1OC(F)F` (centres unmarked) [Example 126, 2-Amino-5-[4-(difluoromethoxy)-3-methylphenyl]-5-[3-(3,3-difluoropropoxy)phenyl]-3-methyl-3,5-dihydro-4H-imidazol-4-one] belongs less than 100 nM; to `Cc1cc([C@]2(c3cccc(OCCC(F)F)c3)N=C(N)N(C)C2=O)ccc1OC(F)F` [Example 127, (5R)-2-Amino-5-[4-(difluoromethoxy)-3-methylphenyl]-5-[3-(3,3-difluoropropoxy)phenyl]-3-methyl-3,5-dihydro-4H-imidazol-4-one], less than 100 nM.
The figure for `Cc1cc([C@@]2(c3cccc(OCCC(F)F)c3)N=C(N)N(C)C2=O)ccc1OC(F)F` [Example 128, (5S)-2-Amino-5-[4-(difluoromethoxy)-3-methylphenyl]-5-[3-(3,3-difluoropropoxy)phenyl]-3-methyl-3,5-dihydro-4H-imidazol-4-one] is 110 to 1000 nM.
As to `CN1C(=O)C(c2ccc(OC(F)F)c(CCF)c2)(c2ccc(F)c(OCC(F)F)c2)N=C1N` (centres unmarked) [Example 129, 2-Amino-5-[3-(2,2-difluoroethoxy)-4-fluorophenyl]-5-[4-(difluoromethoxy)-3-(2-fluoroethyl)phenyl]-3-methyl-3,5-dihydro-4H-imidazol-4-one], the IC50 was less than 100 nM.
The figure for `Cc1cc(C2(c3ccc(F)c(OCCC(F)F)c3)N=C(N)N(C)C2=O)ccc1OC(F)F` (centres unmarked) [Example 130, 2-Amino-5-[4-(difluoromethoxy)-3-methylphenyl]-5-[3-(3,3-difluoropropoxy)-4-fluorophenyl]-3-methyl-3,5-dihydro-4H-imidazol-4-one] is less than 100 nM; for `Cc1cc([C@@]2(c3ccc(F)c(OCCC(F)F)c3)N=C(N)N(C)C2=O)ccc1OC(F)F` [Example 131, (5S)-2-Amino-5-[4-(difluoromethoxy)-3-methylphenyl]-5-[3-(3,3-difluoropropoxy)-4-fluorophenyl]-3-methyl-3,5-dihydro-4H-imidazol-4-one] it is more than 1000 nM.
The figure for `Cc1cc([C@]2(c3ccc(F)c(OCCC(F)F)c3)N=C(N)N(C)C2=O)ccc1OC(F)F` [Example 132, (5R)-2-Amino-5-[4-(difluoromethoxy)-3-methylphenyl]-5-[3-(3,3-difluoropropoxy)-4-fluorophenyl]-3-methyl-3,5-dihydro-4H-imidazol-4-one] is less than 100 nM.
For the molecule `CN1C(=O)C(c2ccc(F)c(OCCC(F)F)c2)(c2ccc(OC(F)F)c(C3CC3)c2)N=C1N` (centres unmarked) [Example 133, 2-Amino-5-[3-cyclopropyl-4-(difluoromethoxy)phenyl]-5-[3-(3,3-difluoropropoxy)-4-fluorophenyl]-3-methyl-3,5-dihydro-4H-imidazol-4-one], the 50% inhibitory concentration (IC50) is less than 100 nM.

The record behind these values is patent publication US20090042964A1, “AMINO-5-[SUBSTITUTED-4-(DIFLUOROMETHOXY)PHENYL]-5-PHENYLIMIDAZOLONE COMPOUNDS AS BETA-SECRETASE INHIBITORS” (Wyeth, priority 2007, published 2009).
